Active and inactive are the calls of the source. The rule behind the calls is not given here.
Tests used:
[1] = target: Dual specificity mitogen-activated protein kinase kinase 7 (Homo sapiens) (UniProt O14733); assay: Inhibition of MKK7 (unknown origin) at 1 uM
[2] = target: cGMP-dependent protein kinase 1 (Homo sapiens) (UniProt Q13976); assay: Inhibition of PKG1alpha (unknown origin) at 1 uM
[3] = target: Tyrosine-protein kinase Fyn (Homo sapiens) (UniProt P06241); assay: Inhibition of FYN (unknown origin) at 1 uM
[4] = Apparent permeability across basolateral to apical side in human Caco-2 cells; format: ADME, cell-based
[5] = target: G protein-coupled receptor kinase 5 (Homo sapiens) (UniProt P34947); assay: Inhibition of GRK5 (unknown origin) at 1 uM
[6] = target: Myosin light chain kinase family member 4 (Homo sapiens) (UniProt Q86YV6); assay: Inhibition of MYLK4 (unknown origin) at 1 uM
[7] = target: Mitogen-activated protein kinase kinase kinase 9 (Homo sapiens) (UniProt P80192); assay: Inhibition of MLK1 (unknown origin) at 1 uM
[8] = AUC (0 to t) in Sprague-Dawley rat at 5 mg/kg, iv; format: ADME, organism-based; parameters: dose 5 mg/kg, route iv; settings: in vivo
[9] = target: Serine/threonine-protein kinase Nek4 (Homo sapiens) (UniProt P51957); assay: Inhibition of NEK4 (unknown origin) at 1 uM
[10] = target: Serine/threonine-protein kinase MRCK alpha (Homo sapiens) (UniProt Q5VT25); assay: Inhibition of MRCKalpha (unknown origin) at 1 uM
[11] = target: MAP kinase-activated protein kinase 5 (Homo sapiens) (UniProt Q8IW41); assay: Inhibition of MAPKAPK5 (unknown origin) at 1 uM
[12] = target: Misshapen-like kinase 1 (Homo sapiens) (UniProt Q8N4C8); assay: Inhibition of MINK1 (unknown origin) at 1 uM
[13] = target: Ephrin type-A receptor 6 (Homo sapiens) (UniProt Q9UF33); assay: Inhibition of EPHA6 (unknown origin) at 1 uM
Ephrin type-A receptor 6 (Homo sapiens), sequence (Q9UF33 whole entry): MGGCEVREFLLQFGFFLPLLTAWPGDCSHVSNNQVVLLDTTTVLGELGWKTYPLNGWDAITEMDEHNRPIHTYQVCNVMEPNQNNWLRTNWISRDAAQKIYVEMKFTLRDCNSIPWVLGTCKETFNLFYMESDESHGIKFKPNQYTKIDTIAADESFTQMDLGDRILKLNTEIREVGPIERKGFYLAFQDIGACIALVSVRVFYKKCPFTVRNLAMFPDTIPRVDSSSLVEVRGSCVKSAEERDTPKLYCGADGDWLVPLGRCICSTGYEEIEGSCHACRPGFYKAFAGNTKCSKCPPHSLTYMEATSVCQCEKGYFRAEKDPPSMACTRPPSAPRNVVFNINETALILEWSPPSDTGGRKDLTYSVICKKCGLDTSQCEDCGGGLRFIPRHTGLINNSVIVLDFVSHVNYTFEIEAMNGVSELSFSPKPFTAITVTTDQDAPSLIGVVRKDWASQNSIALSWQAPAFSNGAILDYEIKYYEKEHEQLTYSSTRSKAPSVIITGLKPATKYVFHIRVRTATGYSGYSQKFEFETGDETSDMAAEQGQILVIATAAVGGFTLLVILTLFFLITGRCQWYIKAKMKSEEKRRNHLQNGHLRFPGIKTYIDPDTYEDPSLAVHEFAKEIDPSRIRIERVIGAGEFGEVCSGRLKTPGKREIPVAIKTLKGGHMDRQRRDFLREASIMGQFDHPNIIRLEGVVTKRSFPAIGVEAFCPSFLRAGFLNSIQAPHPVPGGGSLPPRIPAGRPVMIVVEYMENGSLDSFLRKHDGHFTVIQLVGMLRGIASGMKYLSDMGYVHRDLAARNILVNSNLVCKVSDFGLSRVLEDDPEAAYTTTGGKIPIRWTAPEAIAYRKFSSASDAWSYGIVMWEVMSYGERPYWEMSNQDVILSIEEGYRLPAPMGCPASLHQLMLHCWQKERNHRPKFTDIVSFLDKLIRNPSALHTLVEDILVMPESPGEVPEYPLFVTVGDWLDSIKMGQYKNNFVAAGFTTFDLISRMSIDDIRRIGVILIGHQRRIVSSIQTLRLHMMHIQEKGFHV

[14] = target: Calcium/calmodulin-dependent protein kinase kinase 2 (Homo sapiens) (UniProt Q96RR4); assay: Inhibition of CAMKK2 (unknown origin) at 1 uM
Calcium/calmodulin-dependent protein kinase kinase 2 (Homo sapiens), sequence (Q96RR4 2-588 limits assumed): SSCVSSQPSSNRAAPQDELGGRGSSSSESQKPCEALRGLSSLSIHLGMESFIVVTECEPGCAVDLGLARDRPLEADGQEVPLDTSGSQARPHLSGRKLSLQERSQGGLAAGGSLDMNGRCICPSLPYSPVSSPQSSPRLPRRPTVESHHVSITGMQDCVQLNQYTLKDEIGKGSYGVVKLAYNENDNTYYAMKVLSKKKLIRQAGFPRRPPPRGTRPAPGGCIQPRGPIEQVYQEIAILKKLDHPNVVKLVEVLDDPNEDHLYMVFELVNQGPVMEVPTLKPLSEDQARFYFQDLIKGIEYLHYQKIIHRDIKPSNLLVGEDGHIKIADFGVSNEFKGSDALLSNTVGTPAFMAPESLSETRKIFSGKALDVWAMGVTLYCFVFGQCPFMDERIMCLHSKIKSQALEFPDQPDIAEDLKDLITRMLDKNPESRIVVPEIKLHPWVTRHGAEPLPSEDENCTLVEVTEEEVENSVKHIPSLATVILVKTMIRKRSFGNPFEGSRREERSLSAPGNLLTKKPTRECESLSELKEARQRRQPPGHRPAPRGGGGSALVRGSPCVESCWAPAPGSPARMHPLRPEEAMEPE

[15] = target: Serine/threonine-protein kinase BRSK1 (Homo sapiens) (UniProt Q8TDC3); assay: Inhibition of BRSK1 (unknown origin) at 1 uM
Serine/threonine-protein kinase BRSK1 (Homo sapiens), sequence (Q8TDC3 whole entry): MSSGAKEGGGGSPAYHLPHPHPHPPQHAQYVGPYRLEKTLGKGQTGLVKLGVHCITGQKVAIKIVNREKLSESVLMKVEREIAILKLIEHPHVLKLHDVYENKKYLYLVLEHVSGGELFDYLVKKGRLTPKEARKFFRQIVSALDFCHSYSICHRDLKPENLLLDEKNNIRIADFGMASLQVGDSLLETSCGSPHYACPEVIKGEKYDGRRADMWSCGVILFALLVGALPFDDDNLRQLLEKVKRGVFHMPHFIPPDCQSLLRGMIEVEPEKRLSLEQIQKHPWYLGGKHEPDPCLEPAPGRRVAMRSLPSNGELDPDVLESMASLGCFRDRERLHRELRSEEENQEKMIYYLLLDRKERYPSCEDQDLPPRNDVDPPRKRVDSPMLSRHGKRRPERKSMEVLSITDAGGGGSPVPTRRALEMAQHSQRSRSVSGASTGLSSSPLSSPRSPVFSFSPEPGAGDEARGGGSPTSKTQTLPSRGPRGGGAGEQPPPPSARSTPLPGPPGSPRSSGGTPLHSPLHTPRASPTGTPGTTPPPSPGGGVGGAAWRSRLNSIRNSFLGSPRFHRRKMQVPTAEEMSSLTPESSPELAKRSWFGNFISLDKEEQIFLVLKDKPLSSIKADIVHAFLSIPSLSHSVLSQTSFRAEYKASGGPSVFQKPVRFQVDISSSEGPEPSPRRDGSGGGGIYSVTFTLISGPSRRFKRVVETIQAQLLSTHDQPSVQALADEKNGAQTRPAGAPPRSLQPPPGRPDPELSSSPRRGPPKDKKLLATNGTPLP

[16] = target: SRSF protein kinase 3 (Homo sapiens) (UniProt Q9UPE1); assay: Inhibition of MSSK1 (unknown origin) at 1 uM
[17] = target: Testis-specific serine/threonine-protein kinase 3 (Homo sapiens) (UniProt Q96PN8); assay: Inhibition of TSSK3 (unknown origin) at 1 uM
[18] = target: Serine/threonine-protein kinase/endoribonuclease IRE2 (Homo sapiens) (UniProt Q76MJ5); assay: Inhibition of ERN2 (unknown origin) at 1 uM
[19] = target: Indoleamine 2,3-dioxygenase 1 (Homo sapiens, UniProt P14902); assay: Inhibition of IDO1 (unknown origin) assessed as reduction in kynurenine formation using L-tryptophan as substrate by methylene blue reagent based assay
[20] = target: Mitogen-activated protein kinase 15 (Homo sapiens) (UniProt Q8TD08); assay: Inhibition of ERK7 (unknown origin) at 1 uM
[21] = target: Serine/threonine-protein kinase SIK2 (Homo sapiens) (UniProt Q9H0K1); assay: Inhibition of SIK2 (unknown origin) at 1 uM
[22] = target: Serine/threonine-protein kinase PLK2 (Homo sapiens) (UniProt Q9NYY3); assay: Inhibition of PLK2 (unknown origin) at 1 uM
[23] = target: Mitogen-activated protein kinase 7 (Homo sapiens) (UniProt Q13164); assay: Inhibition of ERK5 (unknown origin) at 1 uM
Mitogen-activated protein kinase 7 (Homo sapiens), sequence (Q13164 2-816 limits assumed): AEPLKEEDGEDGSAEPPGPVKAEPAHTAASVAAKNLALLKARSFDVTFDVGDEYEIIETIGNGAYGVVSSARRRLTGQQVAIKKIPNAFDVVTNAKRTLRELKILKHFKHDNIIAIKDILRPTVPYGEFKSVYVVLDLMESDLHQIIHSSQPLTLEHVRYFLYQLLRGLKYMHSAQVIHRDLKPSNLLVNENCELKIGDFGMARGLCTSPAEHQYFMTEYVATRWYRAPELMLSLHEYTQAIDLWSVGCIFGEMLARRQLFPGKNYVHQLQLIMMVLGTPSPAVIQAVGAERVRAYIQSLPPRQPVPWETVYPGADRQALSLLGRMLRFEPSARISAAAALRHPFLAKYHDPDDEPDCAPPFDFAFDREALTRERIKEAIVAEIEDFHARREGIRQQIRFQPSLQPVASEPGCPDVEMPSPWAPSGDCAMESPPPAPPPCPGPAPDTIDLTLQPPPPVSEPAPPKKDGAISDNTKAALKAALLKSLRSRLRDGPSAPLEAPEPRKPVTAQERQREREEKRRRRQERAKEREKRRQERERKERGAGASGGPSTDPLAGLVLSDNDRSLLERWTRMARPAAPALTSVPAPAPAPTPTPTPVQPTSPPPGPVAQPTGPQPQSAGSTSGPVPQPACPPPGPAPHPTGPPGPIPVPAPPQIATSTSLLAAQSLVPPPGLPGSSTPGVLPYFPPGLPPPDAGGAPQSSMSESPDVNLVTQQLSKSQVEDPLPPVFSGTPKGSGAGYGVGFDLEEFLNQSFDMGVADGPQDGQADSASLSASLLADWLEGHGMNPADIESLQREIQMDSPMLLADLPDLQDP

[24] = target: Aryl hydrocarbon receptor (Homo sapiens, UniProt P35869); assay: Activation of AhR (unknown origin) assessed as effect on CYP1A1 mRNA expression measured after 24 hrs by quantitative RT-PCR analysis; format: ADME
[25] = target: Serine/threonine-protein kinase VRK1 (Homo sapiens) (UniProt Q99986); assay: Inhibition of VRK1 (unknown origin) at 1 uM
[26] = target: Mitogen-activated protein kinase kinase kinase kinase 2 (Homo sapiens) (UniProt Q12851); assay: Inhibition of GCK (unknown origin) at 1 uM
Mitogen-activated protein kinase kinase kinase kinase 2 (Homo sapiens), sequence (Q12851 whole entry, looked up): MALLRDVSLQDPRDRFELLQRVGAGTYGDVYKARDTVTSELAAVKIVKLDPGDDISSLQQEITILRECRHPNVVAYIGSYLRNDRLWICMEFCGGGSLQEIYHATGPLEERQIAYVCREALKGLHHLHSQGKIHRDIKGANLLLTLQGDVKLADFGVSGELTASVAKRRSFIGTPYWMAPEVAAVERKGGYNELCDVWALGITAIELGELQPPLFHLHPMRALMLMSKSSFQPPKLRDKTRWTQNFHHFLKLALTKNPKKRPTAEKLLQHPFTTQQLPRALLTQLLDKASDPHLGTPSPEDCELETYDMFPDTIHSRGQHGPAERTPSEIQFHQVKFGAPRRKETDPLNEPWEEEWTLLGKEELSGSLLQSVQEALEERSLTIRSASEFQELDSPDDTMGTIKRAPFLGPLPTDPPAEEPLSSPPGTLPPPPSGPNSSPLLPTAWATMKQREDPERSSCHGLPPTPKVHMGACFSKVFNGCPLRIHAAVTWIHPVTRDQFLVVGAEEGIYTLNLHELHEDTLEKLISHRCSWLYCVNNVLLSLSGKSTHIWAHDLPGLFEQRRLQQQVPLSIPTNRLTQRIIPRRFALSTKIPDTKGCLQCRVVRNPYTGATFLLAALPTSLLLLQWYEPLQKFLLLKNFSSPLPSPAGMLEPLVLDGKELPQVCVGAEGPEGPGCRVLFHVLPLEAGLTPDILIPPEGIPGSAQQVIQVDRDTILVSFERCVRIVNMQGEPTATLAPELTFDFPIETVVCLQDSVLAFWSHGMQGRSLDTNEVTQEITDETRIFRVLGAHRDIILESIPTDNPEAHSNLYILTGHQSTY

[27] = target: Calcium/calmodulin-dependent protein kinase type II subunit beta (Homo sapiens) (UniProt Q13554); assay: Inhibition of CAMK2B (unknown origin) at 1 uM
[28] = target: Serine/threonine-protein kinase N2 (Homo sapiens) (UniProt Q16513); assay: Inhibition of PKN2 (unknown origin) at 1 uM
[29] = Tmax in Sprague-Dawley rat at 50 mg/kg, po; format: ADME, organism-based; settings: in vivo
[30] = target: Dual specificity mitogen-activated protein kinase kinase 5 (Homo sapiens) (UniProt Q13163); assay: Inhibition of MEK5 (unknown origin) at 1 uM
Dual specificity mitogen-activated protein kinase kinase 5 (Homo sapiens), sequence (Q13163 whole entry): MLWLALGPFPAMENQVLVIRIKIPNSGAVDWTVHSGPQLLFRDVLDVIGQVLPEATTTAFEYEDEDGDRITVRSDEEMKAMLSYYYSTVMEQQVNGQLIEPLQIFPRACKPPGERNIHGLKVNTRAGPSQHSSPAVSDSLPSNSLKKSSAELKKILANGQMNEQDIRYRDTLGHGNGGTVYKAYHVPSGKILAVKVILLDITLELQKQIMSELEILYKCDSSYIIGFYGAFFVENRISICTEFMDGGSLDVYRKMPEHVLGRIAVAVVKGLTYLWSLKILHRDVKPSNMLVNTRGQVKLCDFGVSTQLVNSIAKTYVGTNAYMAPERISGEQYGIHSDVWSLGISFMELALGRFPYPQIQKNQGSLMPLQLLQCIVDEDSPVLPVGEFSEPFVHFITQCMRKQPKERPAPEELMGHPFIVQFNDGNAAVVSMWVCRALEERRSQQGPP

[31] = target: Serine/threonine-protein kinase PAK 3 (Homo sapiens) (UniProt O75914); assay: Inhibition of PAK3 (unknown origin) at 1 uM
[32] = target: Protein-tyrosine kinase 6 (Homo sapiens) (UniProt Q13882); assay: Inhibition of BRK (unknown origin) at 1 uM
HCT-116 = assay: Antitumor immunity in BALB/c mouse xenografted with human HCT-116 cells assessed as live Treg cells in spleen by propidium iodide staining based flow cytometry analysis (reference value: 70.9 %); format: functional
[33] = target: Tyrosine-protein kinase JAK1 (Homo sapiens) (UniProt P23458); assay: Inhibition of JAK1 (unknown origin) at 1 uM
[34] = target: Insulin receptor-related protein (Homo sapiens) (UniProt P14616); assay: Inhibition of IRR (unknown origin) at 1 uM
[35] = Apparent permeability across apical to basolateral side in human Caco-2 cells assessed as drug recovery; format: ADME, cell-based; settings: read-out: Drug recovery
PBMC = assay: Inhibition of IDO1/IDO2 in IFNgamma/LPS-stimulated human PBMCs assessed as reduction in kynurenine formation at 0.0001 to 10 uM pretreated with compound for 15 mins followed by IFNgamma/LPS stimulation by LC-MS/MS analysis; format: tissue-based; settings: dose 0.0001-10 µM
[36] = target: TGF-beta receptor type-1 (Homo sapiens) (UniProt P36897); assay: Inhibition of ALK5 (unknown origin) at 1 uM
[37] = target: Serine/threonine-protein kinase Sgk3 (Homo sapiens) (UniProt Q96BR1); assay: Inhibition of SGK3 (unknown origin) at 1 uM
[38] = Intrinsic clearance in monkey liver microsomes; format: ADME, Macaca mulatta, Microsome; settings: rhesus monkey, read-out: CLH
[39] = target: Homeodomain-interacting protein kinase 2 (Homo sapiens) (UniProt Q9H2X6); assay: Inhibition of HIPK2 (unknown origin) at 1 uM
[40] = target: Dual specificity mitogen-activated protein kinase kinase 2 (Homo sapiens) (UniProt P36507); assay: Inhibition of MEK2 (unknown origin) at 1 uM
[41] = target: Ribosomal protein S6 kinase alpha-3 (Homo sapiens) (UniProt P51812); assay: Inhibition of RSK2 (unknown origin) at 1 uM

Dual specificity mitogen-activated protein kinase kinase 7 (Homo sapiens), sequence (O14733 whole entry): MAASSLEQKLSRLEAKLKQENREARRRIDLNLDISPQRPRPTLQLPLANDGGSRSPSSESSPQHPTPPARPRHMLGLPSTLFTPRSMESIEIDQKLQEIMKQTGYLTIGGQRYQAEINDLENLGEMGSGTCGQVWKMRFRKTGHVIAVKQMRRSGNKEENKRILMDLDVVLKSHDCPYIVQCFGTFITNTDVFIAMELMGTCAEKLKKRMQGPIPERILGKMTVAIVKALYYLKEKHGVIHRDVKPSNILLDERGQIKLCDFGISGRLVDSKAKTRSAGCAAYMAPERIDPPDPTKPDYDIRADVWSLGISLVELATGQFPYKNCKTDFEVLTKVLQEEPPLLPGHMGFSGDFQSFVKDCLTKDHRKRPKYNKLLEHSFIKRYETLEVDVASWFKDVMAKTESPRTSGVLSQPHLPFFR

In the case of `OCCOCc1cn(CCNc2nonc2/C(=N/O)Nc2ccc(F)c(Br)c2)nn1`, the inhibition [1] is reported as “inactive”, the inhibition [2] is reported as “inactive” and the inhibition [3] is reported as “inactive”. For the same compound, the Papp B→A [4] was 46 ×10⁻⁶ cm/s, the inhibition [5] was “inactive” and the inhibition [6] was “inactive”. The inhibition [7] was “inactive”, the AUC(0-t) [8] was 3040 ng·h/mL and the inhibition [9] was “inactive”. The inhibition [10] was “inactive”, the inhibition [11] was “inactive” and the inhibition [12] was “inactive”. The inhibition [13] was “inactive”, the inhibition [14] was “inactive” and the inhibition [15] was “inactive”. The inhibition [16] was “inactive”, the inhibition [17] was “inactive” and the inhibition [18] was “inactive”. The IC50 [19] was 28 nM, the inhibition [20] was “inactive” and the inhibition [21] was “inactive”. The inhibition [22] was “inactive”, the inhibition [23] was “inactive” and the Activity [24] was “Not Active”. For the same compound, the inhibition [25] was “inactive”, the inhibition [26] was “inactive” and the inhibition [27] was “inactive”. The inhibition [28] was “inactive”, the Tmax [29] was 1.3 h and the inhibition [30] was “inactive”. The inhibition [31] was “inactive”, the inhibition [32] was “inactive” and the Activity (HCT-116) was 87.4%. For the same compound, the inhibition [33] was “inactive”, the inhibition [34] was “inactive” and the recovery [35] was 91.1%. For the same compound, the inhibition (PBMC) was “Active”, the inhibition [36] was “inactive” and the inhibition [37] was “inactive”. The microsomal CLint [38] was 36 µL/min/mg, the inhibition [39] was “inactive” and the inhibition [40] was “inactive”. The inhibition [41] was “inactive”.
